Entries after “also recorded” stand apart in the source; their conditions may differ.
What was measured:
cotton seed bugs (CSBs) = assay: Pheromone function assigned from the behavioral responses and VOC profiles; assay type: in vivo, Oxycarenus hyalinipennis; settings: summary statement; compounds not tested singly in the bioassays
[1] = tested on: cotton seed bug (CSB), Oxycarenus hyalinipennis; assay: Field test, pheromones in plastic vials in a cotton field with high CSB population; assay type: in vivo; settings: counted after 1 hour, compared among treatment groups including control (no treatment)
From the text: (§1) The mean number of O. hyalinippenis in different treatment traps (captures/week) in field trials were compared by one-way analysis of variance (ANOVA) followed by Ryan-Einot-Gabriel-Welsch F test (SPSS 10.0 for Windows) following D George and P Mallery (2002, “SPSS for Windows Step by Step: A Simple Guide and Reference,” 11.0 Update. 4th Edition, Allyn & Bacon; Boston, Massachusetts, USA). All statistical comparisons were considered for significance at α=0.05.
(§2) Different pheromones or mixtures of pheromones were tested for their ability to attract CSB in the field.
Field tests were conducted by adding one or more of the identified pheromones to plastic vials and placing the vials in a cotton field with high CSB population, followed by counting the CSB caught after one (1) hour.
A field test was conducted using E2-octenal, E2-octenyl acetate, and a mixture of E2-octenal and E2-octenyl acetate. The compounds were placed in plastic vials in a cotton field with a high population of CSB. Many other bugs were also captured in the traps (numbers were not included).

[2] = cited from earlier work
[3] = cited from earlier work; remark: listed apart in the source
[4] = tested on: cotton seed bug (CSB), Oxycarenus hyalinipennis; assay: Field test, attractants formulated in rubber septa in a cotton field with low CSB population; assay type: in vivo; settings: cotton field where CSB population was low, vs control (no treatment), listed as 4-oxo-E2-8: ald
From the text: as §1, §2
In a separate field test, a mixture of E2-octenal, 4-oxo-E2-octenal, and E2-octenyl acetate in a ratio of 1:2:7, as well as the single attractant component, 4-oxo-E2-8: ald, were tested. The compounds were formulated in rubber septa in a cotton field where the population of CSB was low. CSB formed the majority of insects caught in the traps. Trap specificity was much higher than in the test described above.

| SMILES | pheromone function (cotton seed bugs (CSBs)) | further results |
| --- | --- | --- |
| CCCCCCC/C=C/C=O (single isomer, unassigned) [(E)-2-Decenal] | performed as oviposition pheromones |  |
| CC(C)=CCC[C@]1(C)[C@H]2CC=C(C)[C@@H]1C2 [(E)-α-Bergamotene] | performed as alarm (repellent) pheromones |  |
| CCC(=O)/C=C/C=O [4-Oxo-(E)-2-hexenal] | performed as CSB attraction pheromones |  |
| CCCCC/C=C/C=O [(E)-2-Octenal] | performed as CSB attraction pheromones; also recorded: performed as oviposition pheromones | number of CSB caught in the traps [1]: not significantly different; solubility (in water) [2]: practically insoluble; basicity (based on its pKa) [3]: extremely weak basic (essentially neutral) |
| CCC/C=C/COC(C)=O [(E)-2-Hexenyl acetate, (E)-2-hexen-1-yl acetate] | performed as CSB attraction pheromones |  |
| CC1=CCC2CC1C2(C)C (stereo not drawn) [α-Pinene, 2,6,6-Trimethylbicyclo[3.1.1]hept-2-ene] | performed as CSB attraction pheromones |  |
| CCCCC/C=C/COC(C)=O [(E)-2-Octenyl acetate] | performed as CSB attraction pheromones; also recorded: performed as oviposition pheromones | number of CSB caught in the traps [1]: not significantly different |
| C=C/C(C)=C/C/C=C(/C)CCC=C(C)C [(Z, E)-α-Farnesene] | performed as alarm (repellent) pheromones |  |
| CCCCC(=O)/C=C/C=O [4-Oxo-(E)-2-octenal] |  | CSB trapped compared with control [4]: trapped significantly more CSB than control; also recorded: attract CSB |
| CCC/C=C/C=O [(E)-2-Hexenal] | performed as CSB attraction pheromones |  |
